Reference: the supplement of paper PMC10307832

Assays:
Test in all cases: relative viability (nuclei count vs DMSO), 5 days (fraction); higher = more cells survive
[1] = compound: CC(O)(CS(=O)(=O)c1ccc(F)cc1)C(=O)Nc1ccc(C#N)c(C(F)(F)F)c1 [Bicalutamide] + Nc1ncn([C@H]2C[C@H](O)[C@@H](CO)O2)c(=O)n1 [Decitabine] (partner 2 µM)
In short: (§1)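 For relative viability, nuclei counts in treated wells were divided by those in vehicle wells. Lung cancer cell lines had been pin-tool dosed in 1536-well plates the day after seeding and cultured for 5 days, then fixed and stained in one step (final 0.05% Triton X-100, 1% formaldehyde, 1 ug/ml Hoechst) and imaged at 4×. Doses were one drug alone or a fixed anchor-drug dose plus five library-drug doses (not always all listed) in √10 steps, and values are duplicate-plate medians.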

[2] = compound: CC(O)(CS(=O)(=O)c1ccc(F)cc1)C(=O)Nc1ccc(C#N)c(C(F)(F)F)c1 [Bicalutamide] + Cc1nc(NC(=O)N2CCC[C@H]2C(N)=O)sc1-c1ccnc(C(C)(C)C(F)(F)F)c1 [Alpelisib] (partner 2 µM)
In short: as §1

[3] = compound: C(C(=O)C(=O)O)Br [Bromopyruvate] + Cc1nc(Nc2ncc(C(=O)Nc3c(C)cccc3Cl)s2)cc(N2CCN(CCO)CC2)n1 [Dasatinib] (partner 0.075 µM)
In short: as §1

[4] = compound: CC(O)(CS(=O)(=O)c1ccc(F)cc1)C(=O)Nc1ccc(C#N)c(C(F)(F)F)c1 [Bicalutamide] + CCNC(=O)c1noc(-c2cc(C(C)C)c(O)cc2O)c1-c1ccc(CN2CCOCC2)cc1 [Luminespib] (partner 0.01 µM)
In short: as §1

UMC-11
relative viability ([1]; first compound 0.08 µM): 0.535
relative viability ([1]; first compound 0.253 µM): 0.507
relative viability ([1]; first compound 0.8 µM): 0.623
relative viability ([1]; first compound 2.53 µM): 0.555
relative viability ([2]; first compound 0.08 µM): 1.05
relative viability ([2]; first compound 0.253 µM): 0.9
relative viability ([2]; first compound 0.8 µM): 1.12
relative viability ([2]; first compound 2.53 µM): 0.976
relative viability ([3]; first compound 1 µM): 0.504
relative viability ([3]; first compound 3.162 µM): 0.497
relative viability ([3]; first compound 10 µM): 0.484
relative viability ([3]; first compound 31.62 µM): 0.433
relative viability ([3]; first compound 100 µM): 0.495
relative viability ([4]; first compound 0.08 µM): 1.07
relative viability ([4]; first compound 0.253 µM): 1.03
relative viability ([4]; first compound 0.8 µM): 1.14
relative viability ([4]; first compound 2.53 µM): 0.949
